In brackets after ≈: the same amount, converted by molar mass. Each block holds one molecule with its values, some of them ahead of it.
Assays:
rat paw edema = assay: Rat paw edema assay, oral dosing; assay type: in vivo; conditions: four hours after drug; for change in vivo at 100 mg/kg / change in vivo at 400 mg/kg: Rattus norvegicus, 4 h, read-out: % Difference from Control
Description: (§1) The anti-inflammatory activity of representative compounds of this invention was determined by the rat paw edema assay both by local administration (Table XI below) and by oral dosing (Table XII below). For the oral dosing, the procedure of C. A. Winter, E. A. Risley and G. W. Nuss, Proc. Soc. Exp. Biol. Med. 111, 544 (1962) was employed with measurement taken four hours after the drug was administered.
(§2) Tables XI and XII report the anti-inflammatory activity of the compounds tested as % difference in the edema or swelling as compared with the control. These Tables also give the response in many instances of more than one dose level of the same drug.

[1] = tested on: Trichophyton mentagrophytes (ATCC No. 8757 and 9129); assay: Antifungal activity, agar dilution method: T. mentagrophytes; assay type: cell-based; conditions: ATCC8757, agar dilution, read-out: Antifungal Activity, Parts Per Million Inhibitions of Fungus and Yeast Species: T. mentagrophytes
Description: (§3) Various compounds of this invention display antifungal and anti-yeast activity.
(§4) In Table IX below are listed the antifungal activity of a number of compounds encompassed in the present invention. These were determined by the agar dilution method as described in Chapters 2 and 3 of Methods in Microbiology, Vol. 7B, edited by J. R. Norris and D. W. Ribbons, Academic Press, New York, 1972.

Trichophyton ajelloi = assay: Antifungal activity, agar dilution method: T. ajelloi; assay type: cell-based; conditions: Arthroderma uncinatum, read-out: Antifungal Activity, Parts Per Million Inhibitions of Fungus and Yeast Species: T. ajelloi
Description: as §3, §4

[2] = tested on: Trichophyton rubrum (ATCC No. 10218 and 14001); assay: Antifungal activity, agar dilution method: T. rubrum; assay type: cell-based; conditions: for Antifungal Activity, Parts Per Million Inhibitions of Fungus and Yeast Species: T. rubrum: agar dilution
Description: as §3, §4

[3] = Immunosuppressant activity (in words)
[4] = tested on: carrageenan rat paw edema; assay: Rat paw edema assay, local administration; assay type: in vivo; conditions: injected directly into paw, 1 μg, read-out: % Difference from Control
Description: as §1
The local administration tests were carried out similarly except the irritant (carrageenan) and the test compound were injected simultaneously at time zero.
as §2

Candida tropicalis = assay: Antifungal activity, agar dilution method: C. tropicalis; assay type: cell-based; conditions: read-out: Antifungal Activity, Parts Per Million Inhibitions of Fungus and Yeast Species: C. tropicalis
Description: as §3, §4

SMILES: Cc1cccc(C(=O)Nc2ccccc2-n2ccnc2)c1 [Compound 36]
% Difference from Control (rat paw edema; 100 mg/kg): -7%
% Difference from Control (rat paw edema; 400 mg/kg): -68%

MIC [1]: 100 µg/mL (≈ 292 µM)
MIC (Trichophyton ajelloi): 100 µg/mL (≈ 292 µM)
SMILES: O=C(Nc1ccccc1-n1ccnc1)c1cccc(Br)c1 [Compound 59]

MIC ([2]; Trichophyton rubrum, ATCC10218, agar dilution, read-out: Antifungal Activity, Parts Per Million Inhibitions of Fungus and Yeast Species: T. rubrum): 100 µg/mL (≈ 289 µM)
MIC [1]: 100 µg/mL (≈ 289 µM)
MIC (Trichophyton ajelloi): 100 µg/mL (≈ 289 µM)
SMILES: O=C(Nc1cccc(C(F)(F)F)c1)Nc1ccccc1-n1ccnc1 [Compound 82]

SMILES: c1ccc2c(c1)ncc1nccn12 [Compound 109, imidazo[1,2-a]quinoxaline]
immunosuppressant activity [3]: lacks immunosuppressant activity

SMILES: CCCCCc1nc2ccccc2n2ccnc12 [Compound 114]
change in vivo at 0.001 mg [4]: -68.2%

MIC (Trichophyton ajelloi): 100 µg/mL (≈ 374 µM)
SMILES: CCCCCCCc1nc2ccccc2n2ccnc12 [Compound 116]

SMILES: CCCCCCCCCCCCCCCc1nc2ccccc2n2ccnc12 [Compound 119]
Antifungal Activity, Parts Per Million Inhibitions of Fungus and Yeast Species: T. rubrum [2]: 8 Parts Per Million

SMILES: CCCCCCCCCCCCCCCCCc1nc2ccccc2n2ccnc12 [Compound 120]
Antifungal Activity, Parts Per Million Inhibitions of Fungus and Yeast Species: T. rubrum [2]: 1 Parts Per Million

SMILES: FC(F)(F)c1nc2ccccc2n2ccnc12 [Compound 122]
change in vivo at 100 mg/kg (rat paw edema; 100 mg/kg): -17%
change in vivo at 400 mg/kg (rat paw edema; 400 mg/kg): -68%

SMILES: c1ccc(-c2nc3ccccc3n3ccnc23)cc1 [Compound 131, 4-phenylimidazo[1,2-a]quinoxaline]
immunosuppressant activity [3]: only minor activity

SMILES: CC(=O)Nc1ccc(-c2nc3ccccc3n3ccnc23)cc1 [Compound 155]
change in vivo at 100 mg/kg (rat paw edema; 100 mg/kg): 70%
change in vivo at 400 mg/kg (rat paw edema; 400 mg/kg): -25%

MIC (Candida tropicalis): 100 µg/mL (≈ 330 µM)
SMILES: CC(=O)Oc1ccc(-c2nc3ccccc3n3ccnc23)cc1 [Compound 163]
